Read-outs that look alike come from different tables or passages of the source.
Assays:
[1] = system: Key Grass and Sedge Weeds as well as Grass Crops; assay: Post-emergent Test II herbicidal activity (Table 16); type: in vivo; conditions: post-emergence, 336 h, 14 d; for pest or weed control at 35 g/ha: 35 g ai/ha; for pest or weed control at 70 g/ha: 70 g ai/ha; for pest or weed control at 140 g/ha: 140 g ai/ha
Outline: (§1)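 Visual injury rating (0 = none, 100 = complete kill) taken 14 d after treatment, relative to untreated plants. Compounds in acetone/DMSO with crop oil concentrate and Triton X-155 were track-sprayed at 187 L/ha onto seedlings at the first-second true leaf stage.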

undesirable vegetation = assay: Herbicidal activity, comparison X is CF with X is CH; type: in vivo; conditions: 1.08 and 1.09 vs 1.21 and 1.22; 1.15 and 1.16 vs 1.23 and 1.24; A is A15
[2] = system: Key Broadleaf Weed and Crop Species; assay: Post-emergent Test II herbicidal activity (Table 15); type: in vivo; conditions: post-emergence, 336 h, 14 d; for pest or weed control at 35 g/ha: 35 g ai/ha; for pest or weed control at 70 g/ha: 70 g ai/ha; for pest or weed control at 140 g/ha: 140 g ai/ha
Outline: as §1

[3] = Cyperus esculentus, yellow nutsedge (Cyperus esculentus), read-out: Visual Growth Reduction (%) 14 Days After Application, CYPES
[4] = Echinochloa crus-galli, barnyardgrass (Echinochloa crus-galli), read-out: Visual Growth Reduction (%) 14 Days After Application, ECHCG
[5] = Oryza sativa, rice (Oryza sativa), read-out: Visual Growth Reduction (%) 14 Days After Application, ORYSA
[6] = Setaria faberi, giant foxtail (Setaria faberi), read-out: Visual Growth Reduction (%) 14 Days After Application, SETFA
[7] = Triticum aestivum, wheat, spring (Triticum aestivum), read-out: Visual Growth Reduction (%) 14 Days After Application, TRZAS
[8] = Zea mays, maize, corn (Zea mays), read-out: Visual Growth Reduction (%) 14 Days After Application, ZEAMX
[9] = Abutilon theophrasti, velvetleaf (Abutilon theophrasti), read-out: Visual Growth Reduction (%) 14 Days After Application, ABUTH
[10] = Amaranthus retroflexus, redroot pigweed (Amaranthus retroflexus), read-out: Visual Growth Reduction (%) 14 Days After Application, AMARE
[11] = Brassica napus, oilseed rape, canola (Brassica napus), read-out: Visual Growth Reduction (%) 14 Days After Application, BRSNN
[12] = Chenopodium album, lambsquarters (Chenopodium album), read-out: Visual Growth Reduction (%) 14 Days After Application, CHEAL
[13] = Euphorbia heterophylla, wild poinsettia (Euphorbia heterophylla), read-out: Visual Growth Reduction (%) 14 Days After Application, EPHHL
[14] = Helianthus annuus, sunflower (Helianthus annuus), read-out: Visual Growth Reduction (%) 14 Days After Application, HELAN

Structure (SMILES) | pest or weed control at 35 g/ha [1, 3] [%] | pest or weed control at 70 g/ha [1, 3] [%] | pest or weed control at 140 g/ha [1, 3] [%] | pest or weed control at 35 g/ha [1, 4] [%] | pest or weed control at 70 g/ha [1, 4] [%] | pest or weed control at 140 g/ha [1, 4] [%] | pest or weed control at 35 g/ha [1, 5] [%] | pest or weed control at 70 g/ha [1, 5] [%] | pest or weed control at 140 g/ha [1, 5] [%] | pest or weed control at 35 g/ha [1, 6] [%] | pest or weed control at 70 g/ha [1, 6] [%] | pest or weed control at 140 g/ha [1, 6] [%] | pest or weed control at 35 g/ha [1, 7] [%] | pest or weed control at 70 g/ha [1, 7] [%] | pest or weed control at 140 g/ha [1, 7] [%] | pest or weed control at 35 g/ha [1, 8] [%] | pest or weed control at 70 g/ha [1, 8] [%] | pest or weed control at 140 g/ha [1, 8] [%] | activity when X is CF compared with X is CH (undesirable vegetation) | pest or weed control at 35 g/ha [2, 9] [%] | further results
Nc1c(F)c(-c2ccc3cc[nH]c3c2F)nc(C(=O)O)c1Cl [Compound 1.16, 4-Amino-3-chloro-5-fluoro-6-(7-fluoro-1H-indol-6-yl)picolinic acid] | 0 to 29 | 60 to 74 | 85 to 94 | 75 to 84 | 85 to 94 | 95 to 100 | 30 to 44 | 60 to 74 | 60 to 74 | 60 to 74 | 75 to 84 | 85 to 94 | 30 to 44 | 60 to 74 | 60 to 74 | 0 to 29 | 30 to 44 | 60 to 74 | significant increase in activity | 85 to 94 | pest or weed control at 70 g/ha [2, 9]: 95 to 100%; pest or weed control at 140 g/ha [2, 9]: 95 to 100%; pest or weed control at 35 g/ha [2, 10]: 95 to 100%; pest or weed control at 70 g/ha [2, 10]: 95 to 100%; pest or weed control at 140 g/ha [2, 10]: 95 to 100%; pest or weed control at 35 g/ha [2, 11]: 95 to 100%; pest or weed control at 70 g/ha [2, 11]: 95 to 100%; pest or weed control at 140 g/ha [2, 11]: 95 to 100%; pest or weed control at 35 g/ha [2, 12]: 95 to 100%; pest or weed control at 70 g/ha [2, 12]: 95 to 100%; pest or weed control at 140 g/ha [2, 12]: 95 to 100%; pest or weed control at 35 g/ha [2, 13]: 95 to 100%; pest or weed control at 70 g/ha [2, 13]: 95 to 100%; pest or weed control at 140 g/ha [2, 13]: 95 to 100%; pest or weed control at 35 g/ha [2, 14]: 95 to 100%; pest or weed control at 70 g/ha [2, 14]: 95 to 100%; pest or weed control at 140 g/ha [2, 14]: 85 to 94%
COC(=O)c1nc(-c2ccc3cc[nH]c3c2F)c(F)c(N)c1Cl [Compound 1.15, Methyl 4-amino-3-chloro-5-fluoro-6-(7-fluoro-1H-indol-6-yl)picolinate] | 0 to 29 | 60 to 74 | 45 to 59 | 75 to 84 | 85 to 94 | 95 to 100 | 0 to 29 | 0 to 29 | 30 to 44 | 60 to 74 | 60 to 74 | 85 to 94 | 45 to 59 | 60 to 74 | 60 to 74 | 0 to 29 | 30 to 44 | 60 to 74 | significant increase in activity | 95 to 100 | pest or weed control at 70 g/ha [2, 9]: 95 to 100%; pest or weed control at 140 g/ha [2, 9]: 95 to 100%; pest or weed control at 35 g/ha [2, 10]: 95 to 100%; pest or weed control at 70 g/ha [2, 10]: 95 to 100%; pest or weed control at 140 g/ha [2, 10]: 95 to 100%; pest or weed control at 35 g/ha [2, 11]: 75 to 84%; pest or weed control at 70 g/ha [2, 11]: 95 to 100%; pest or weed control at 140 g/ha [2, 11]: 95 to 100%; pest or weed control at 35 g/ha [2, 12]: 95 to 100%; pest or weed control at 70 g/ha [2, 12]: 95 to 100%; pest or weed control at 140 g/ha [2, 12]: 95 to 100%; pest or weed control at 35 g/ha [2, 13]: 95 to 100%; pest or weed control at 70 g/ha [2, 13]: 95 to 100%; pest or weed control at 140 g/ha [2, 13]: 95 to 100%; pest or weed control at 35 g/ha [2, 14]: 95 to 100%; pest or weed control at 70 g/ha [2, 14]: 95 to 100%; pest or weed control at 140 g/ha [2, 14]: 95 to 100%
COC(=O)c1nc(-c2ccc3cc[nH]c3c2)c(F)c(N)c1Cl [Compound 1.08] | 0 to 29 | 0 to 29 | 0 to 29 | 85 to 94 | 95 to 100 | 95 to 100 | 0 to 29 | 0 to 29 | 0 to 29 | 0 to 29 | 60 to 74 | 75 to 84 | 0 to 29 | 0 to 29 | 30 to 44 | 45 to 59 | 75 to 84 | 85 to 94 | significant increase in activity | 85 to 94 | pest or weed control at 70 g/ha [2, 9]: 95 to 100%; pest or weed control at 140 g/ha [2, 9]: 95 to 100%; pest or weed control at 35 g/ha [2, 10]: 95 to 100%; pest or weed control at 70 g/ha [2, 10]: 95 to 100%; pest or weed control at 140 g/ha [2, 10]: 95 to 100%; pest or weed control at 35 g/ha [2, 11]: 45 to 59%; pest or weed control at 70 g/ha [2, 11]: 75 to 84%; pest or weed control at 140 g/ha [2, 11]: 85 to 94%; pest or weed control at 35 g/ha [2, 12]: 95 to 100%; pest or weed control at 70 g/ha [2, 12]: 95 to 100%; pest or weed control at 140 g/ha [2, 12]: 95 to 100%; pest or weed control at 35 g/ha [2, 13]: 95 to 100%; pest or weed control at 70 g/ha [2, 13]: 95 to 100%; pest or weed control at 140 g/ha [2, 13]: 95 to 100%; pest or weed control at 35 g/ha [2, 14]: 85 to 94%; pest or weed control at 70 g/ha [2, 14]: 95 to 100%; pest or weed control at 140 g/ha [2, 14]: 95 to 100%; melting point: 66 to 69 °C
